Patent US12083093B2, “Composition for preventing or treating cellular senescence-related diseases comprising salinomycin as effective component” (RESEARCH COOPERATION FOUNDATION OF YEUNGNAM UNIVERSITY, priority 2018, dated 2024)

What was measured:
[1] = system: renal fibrosis induced by renal ischemia-reperfusion injury; type: in vivo, C57BL/6J mice; settings: compared to PBS group
Description: Animal experiments were performed with the approval of the Animal Experimental Ethics Committee, Yeungnam University College of Medicine (YUMC-AEC2018-024). C57BL/6J 8-week-old male mice were anesthetized by intraperitoneal injection of 2.5% Avertin (0.025 ml/g body weight). The mouse was placed on a hot plate at 37° C., and the left flank was incised to expose the left kidney. The renal arteriovenous blood vessels were ligated with a microaneurism clamp (Roboz), and whether the blood vessels were blocked or not was confirmed by the color of the kidneys. During the induction of ischemia, the body temperature of the mice was maintained at 36.5-37.5° C. After 35 minutes, the clamp was removed and it was confirmed that reperfusion occurred.
As a control, renal arteriovenous vessels were not ligated, and the rest was performed in the same manner as above. From 4 days after ischemia-reperfusion injury, 2.5 μl of 10 mM salinomycin was diluted in 100 μl of phosphate buffer solution at intervals of 2 days and injected into the abdominal cavity 3 times (Sal group). […] Three mice were used for each group.
The left kidney in which ischemia-reperfusion injury was induced, was excised in half and fixed in 10% formalin solution or stored frozen in liquid nitrogen.
In order to evaluate kidney function due to ischemia-reperfusion injury, creatinine and blood urea nitrogen (BUN) concentrations in plasma and urine were measured.
Blood was collected from the retro-orbital vascular plexus of the mouse using a heparin capillary tube, and plasma was separated. Plasma creatinine was measured by QuantiChrom™ creatinine assay kit (DICT-500; BioAssay Systems, Hayward, CA, USA), and BUN was investigated by measuring absorbance at 490 nm and 450 nm by a spectrophotometer, respectively by BUN colorimetric detection kit (Arbor Assays, Ann Arbor, Michigan, USA). […]
RIPA buffer was added to the tissue and pulverized with WiseTis homogenizer HG-15D (DAIHAN Scientific, Seoul, South Korea). Centrifugation was performed at 12,000 rpm at 4° C. for 20 minutes, and the supernatant was transferred to a new tube. The protein concentration of the supernatant was quantified by the BCA method.
After electrophoresis (SDS-PAGE) of 30 μg of protein, Western blot analysis was performed. After electrophoresis, the protein was transferred from the gel to a polyvinylidene fluoride membrane (Pall Corporation). The membrane was treated with a 5% Difco™ skim milk solution (Becton, Dickinson and Company, USA) for 2 hours at room temperature, and the primary antibody was added, followed by reaction at room temperature for 2 hours.
As the primary antibody, anti-p53 antibody, anti-p16 antibody, anti-actin antibody and anti-GAPDH antibody were purchased from Santa Cruz Biotechnology, Inc. Anti-phosphorylated-Rb antibody was obtained from New England Biolabs (Ipswich, MA, USA), and the anti-SOD2 antibody and anti-catalase antibody were obtained from Bioworld Technology Inc. (Louis Park, MN, USA), anti-HNE antibody, anti-α-smooth muscle actin antibody, and anti-type I collagen antibody were purchased from Abcam (Cambridge, UK).
(§1) The tissue fixed in 10% formalin solution was embedded with paraffin and cut into 4 μm to prepare a tissue sample. After removing paraffin from the tissue sample, hematoxylin-eosin staining, trichrome staining, and PAS staining were performed.
The degree of fibrosis was measured by analyzing the degree of collagen staining using the i-Solution™ software program (IMT Inc., Canada) after trichrome staining and the degree of cell senescence in tissue samples was investigated by staining lipofuscin with Sudan black B (Viegas M S, et al., European journal of histochemistry: EJH. 2007). The degree of peritoneal fibrosis was confirmed by measuring the submesothelial thickness of the peritoneal mesothelial cell layer using the NIH Image J program. […]

[2] = system: pulmonary fibrosis induced by bleomycin; type: in vivo, C57BL/6J mice; settings: compared to PBS group
Description: Animal experiments were conducted with the approval of the Animal Experimental Ethics Committee, Yeungnam University College of Medicine (YUMC-AEC2018-025). After anesthetizing by injecting 2.5% avertin (Avertin; 0.025 ml/g) into the abdominal cavity of 10-week-old C57BL/6J male mice, 2 mU/g of bleomycin was instilled into the bronchi and injected into the lungs.
From 5 days after bleomycin administration, 2.5 μl of 10 mM salinomycin was diluted in 100 μl phosphate buffer solution at intervals of 3 days and injected intraperitoneally 6 times (Sal group).
Three mice were used for each group, and lungs were excised by sacrifice 22 days after bleomycin injection and fixed in 10% formalin solution or stored frozen in liquid nitrogen.
as §1
The degree of fibrosis was measured by analyzing the degree of collagen staining using the i-Solution™ software program (IMT Inc., Canada) after trichrome staining and the degree of cell senescence in tissue samples was investigated by staining lipofuscin with Sudan black B (Viegas M S, et al., European journal of histochemistry: EJH. 2007). The degree of peritoneal fibrosis was confirmed by measuring the submesothelial thickness of the peritoneal mesothelial cell layer using the NIH Image J program.
In addition, lung tissue samples were prepared, and hematoxylin-eosin staining and trichrome staining were performed to confirm the degree of damage to the lung tissue and the degree of lung fibrosis.

[3] = kidney tissue, antioxidant enzyme
[4] = kidney tissue, fibrosis marker, FIG. 7L, 7M

CC[C@@H](C(=O)[C@@H](C)[C@@H](O)[C@H](C)[C@@H]1O[C@@H]([C@@H](CC)C(=O)O)CC[C@@H]1C)[C@H]1O[C@]2(C=C[C@@H](O)[C@]3(CC[C@@](C)([C@H]4CC[C@](O)(CC)[C@H](C)O4)O3)O2)[C@H](C)C[C@@H]1C [salinomycin]
further increased: body weight ([2]; i.p. 6 times at 3-day intervals, FIG. 8B)
increased: expression of SOD2 (Western blot) [1, 3] | expression of catalase (Western blot) [1, 3]
marked decrease: expression of p16 (Western blot) ([1]; kidney tissue, cellular aging marker, FIG. 7K) | expression of 4-HNE (Western blot) ([1]; kidney tissue, oxidative stress marker, FIG. 7K)
significantly reduced: lipid peroxides in tissue ([1]; kidney tissue, FIG. 7H) | MDA in tissue ([1]; kidney tissue, FIG. 7I) | degree of tissue fibrosis by trichrome staining ([1]; kidney, FIG. 7E, 7F) | damage to the renal tubules ([1]; renal tissue specimen, FIG. 7E, 7F)
statistically significantly reduced: degree of lung tissue damage ([2]; hematoxylin-eosin staining, FIG. 8C, 8D) | degree of lung fibrosis ([2]; trichrome staining, FIG. 8C, 8D)
decreased: plasma creatinine ([1]; i.p. 3 times at 2-day intervals from day 4, FIG. 7C) | plasma BUN ([1]; i.p. 3 times at 2-day intervals from day 4, FIG. 7D) | expression of pRb (Western blot) ([1]; kidney tissue, cell proliferation marker, FIG. 7L, 7M) | expression of p53 (Western blot) ([1]; kidney tissue, cellular aging marker, FIG. 7L, 7M) | Sudan Black B (lipofuscin) staining intensity ([1]; kidney tissue, cellular senescence, FIG. 7G) | expression of type 1 collagen (COL1) (Western blot) [1, 4] | expression of α-SMA (Western blot) [1, 4] | superoxides in tissue ([1]; kidney tissue, FIG. 7J)
